Test results: patent US20060223812A1, “Treating neurodegenerative conditions” (MAX-PLANCK-GESELLSCHAFT ZUR FORDERUNGDER WISSENSCHAFTEN, …, priority 2004, published 2006)
Values joined by “and” are separate entries in the source; they are usually repeats but may differ in a detail not shown here. Equal entries are not always repeated. Where two headings read alike, the source gives them in different places.

Tests used:
Type in all cases: biochemical
K18/ΔK280 = K18/ΔK280 (Homo sapiens, UniProt P10636, DEL598-598); assay: Thioflavine S assay, inhibition of PHF formation, K18/ΔK280 without heparin
Text: All the polymerisation reactions described so far used heparin as a cofactor for inducing PHF assembly because otherwise the process would be impracticably slow (Goedert et al., 1996; Perez et al., 1996). In order to rule out a potential influence of heparin on the efficiency of the compounds the 4-repeat construct K18/ΔK280 which carries one of the mutations observed in frontotemporal dementia (van Swieten et al., 1999) and is capable of polymerising into PHFs without a polyanionic cofactor (von Bergen, 2001) (FIG. 2E) was used. […] The differences in inhibition effects for K18 (with heparin) and K18/ΔK280 (without heparin) could be caused either by a difference in conformation and/or protein-protein interactions, or perhaps by an interaction between the compound and the cofactor heparin.

tau construct K19 = molecular target: T1, tau construct K19 (Homo sapiens, UniProt P10636); assay: Thioflavine S assay, inhibition of PHF formation, K19; details: ThS fluorescence, 10 μM K19, heparin; read-out: Inhibition of tau aggregation IC50, K19
T1 construct: construct K19 containing three repeats; made in house; host or cells: E. coli
Procedure: (§1) Assembly of synthetic PHFs of tau protein (K19, 10 μM) was performed at 37° C. in the presence of polyanions (heparin; 5 μM) in 50 mM NH4Ac, pH 6.8. Assembly was followed either qualitatively by electron microscopy or quantitatively by fluorescence assay using thioflavine S. PHF-formation of tau isoforms htau23 and htau24 was carried out in PBS-buffer pH 7.4, 50 μM protein, and 12.5 μM heparin. The samples were incubated at 50° C. for 10 days. In the case of htau24 and K18, DTT was added at a final concentration of 1 mM each day in order to avoid intra-molecular disulfide crosslinking (Barghorn et al., 2000).
(§2) PHF formation was monitored by a thioflavine S fluorescence assay (Friedhoff et al., 1998a) adapted to a 384 well format. 60 μM of each substance was tested for its inhibitory effect on PHF formation. Using an automated pipetting system (Cybi-Well, CyBio, Jena, Germany) 50 mM NH4AC, 10 μM protein (K19), 60 μM compound and 5 μM heparin were mixed in 50 μl volume in a 384 well plate (black microtiter 384 plate round well, ThermoLabsystems, Dreiich, Germany) and incubated overnight at 37° C. As a control the protein was replaced with H2O to measure the possible fluorescence of the compounds. As a second control the reaction mixture without compound was treated in the same way.
(§3) After incubation with the compounds thioflavine S was added to the buffer to a final concentration of 20 μM and the signal was measured at excitation at 440 nm and emission at 521 nm in a spectrofluorimeter (Ascent; Labsystems, Frankfurt).
Inhibitory effects begun to appear at concentrations around 0.1 μM (ratio of protein to compound=100), and reached nearly complete inhibition at 100 μM compound concentration (ratio protein/compound=0.1). Overall, the curves of FIG. 2A decay fairly steeply over a compound concentration range of 2-3 orders of magnitude.
(A) extent of aggregation of tau construct K19 (10 μM) plotted vs. inhibitor concentration (range 1 fM-60 μM). The extent of aggregation was measured by the thioflavin S fluorescence assay and the degree of inhibition was plotted as percentage of control. All measurements were performed in triplicates.

PHFs from htau23 = molecular target: T2, PHFs from htau23 (Homo sapiens, UniProt P10636); assay: Thioflavine S assay, depolymerisation of pre-formed PHFs, htau23
T2 construct: made in house; host or cells: E. coli
Procedure: (§4) The ThS assay was used to analyse the ability of the five compounds (see Example 4) to depolymerise pre-formed PHFs made from the repeat domain constructs K19 and K18 as well as from isoforms htau23 and htau24, containing 3 or 4 repeats, respectively.
PHFs assembled from the full length three repeat isoform htau23 were also sensitive to disaggregation (FIG. 4C). The DC50 values ranged from 7.0 to 60 μM.
(§5) Tau constructs and isoforms K19, K18, hTau23, hTau24 (10 μM) were first aggregated into PHFs for 48 hours in the presence of 2.5 μM heparin (except K18/ΔK280) and the polymers separated from the soluble tau by centrifugation of 1 h at 100,000 g, redissolved and then exposed to the inhibitors overnight at 37° C. at the indicated concentrations (range 0.001-200 μM).

[1] = molecular target: T3, four repeat construct K18 (Homo sapiens, UniProt P10636); assay: Thioflavine S assay, inhibition of PHF formation, K18
T3 construct: made in house; host or cells: E. coli
Procedure: as §1, §2, §3
The four repeat construct K18 was tested under the same conditions (FIG. 2B). […] However, the decay of the curves of K18 is more gradual than those of K19, extending over 3-4 orders of magnitude of compound concentration (compare FIG. 2A).

PHFs from htau24 = molecular target: T4, PHFs from htau24 (Homo sapiens, UniProt P10636); assay: Thioflavine S assay, depolymerisation of pre-formed PHFs, htau24
T4 construct: made in house; host or cells: E. coli
Procedure: as §4, §5

PHFs from K19 = molecular target: T5, PHFs from K19 (Homo sapiens, UniProt P10636); assay: Thioflavine S assay, depolymerisation of pre-formed PHFs, K19
T5 construct: construct K19 containing three repeats; made in house; host or cells: E. coli
Procedure: Depolymerisation of PHFs was monitored by the thioflavine S fluorescence. 60 μM of each compound was tested for its ability to depolymerise pre-formed PHFs. 50 mM NH4Ac, 10 μM PHF (K19), 60 μM compound and 5 μM heparin were mixed in 50 μl volume in a 384 well plate (black microtiter 384 plate round well, ThermoLabsystems, Dreiich, Germany) and incubated overnight at 37° C. As a control the reaction mixture without compound was treated in the same way.
After incubation thioflavine S was added to the buffer to a final concentration of 20 μM and the signal was measured at excitation at 440 nm and emission at 521 nm in a spectrofluorimeter (Ascent; Labsystems, Frankfurt).
as §4
The depolymerisation of K19 filaments (FIG. 4A) followed a similar concentration dependence as the inhibition experiment, with consistently similar or slightly higher DC50 values than the corresponding IC50 concentrations (Table 2). The ratios of IC50/DC50 range from 0.2-1.2. […] Here, too, the concentration dependence for K19 was steeper than for K18 (compare FIGS. 4A, B), similar to that of assembly inhibition (FIGS. 2A, B).
as §5, with “μM). The compounds are capable of disassembling PHFs with varying efficiencies (see Table 2).” for “μM).”

[2] = ThS fluorescence, read-out: Inhibition of tau aggregation IC50, K18/ΔK280
[3] = ThS fluorescence, read-out: Depolymerisation of PHFs DC50, hTau23
[4] = ThS fluorescence, K18, heparin, read-out: Inhibition of tau aggregation IC50, K18
[5] = ThS fluorescence, pre-formed PHFs; read-out: Depolymerisation of PHFs DC50, hTau24
[6] = ThS fluorescence, overnight 37° C., read-out: Depolymerisation of PHFs DC50, K19

Chain of K18/ΔK280 (P10636 with tags, fused parts or gaps DEL598-598): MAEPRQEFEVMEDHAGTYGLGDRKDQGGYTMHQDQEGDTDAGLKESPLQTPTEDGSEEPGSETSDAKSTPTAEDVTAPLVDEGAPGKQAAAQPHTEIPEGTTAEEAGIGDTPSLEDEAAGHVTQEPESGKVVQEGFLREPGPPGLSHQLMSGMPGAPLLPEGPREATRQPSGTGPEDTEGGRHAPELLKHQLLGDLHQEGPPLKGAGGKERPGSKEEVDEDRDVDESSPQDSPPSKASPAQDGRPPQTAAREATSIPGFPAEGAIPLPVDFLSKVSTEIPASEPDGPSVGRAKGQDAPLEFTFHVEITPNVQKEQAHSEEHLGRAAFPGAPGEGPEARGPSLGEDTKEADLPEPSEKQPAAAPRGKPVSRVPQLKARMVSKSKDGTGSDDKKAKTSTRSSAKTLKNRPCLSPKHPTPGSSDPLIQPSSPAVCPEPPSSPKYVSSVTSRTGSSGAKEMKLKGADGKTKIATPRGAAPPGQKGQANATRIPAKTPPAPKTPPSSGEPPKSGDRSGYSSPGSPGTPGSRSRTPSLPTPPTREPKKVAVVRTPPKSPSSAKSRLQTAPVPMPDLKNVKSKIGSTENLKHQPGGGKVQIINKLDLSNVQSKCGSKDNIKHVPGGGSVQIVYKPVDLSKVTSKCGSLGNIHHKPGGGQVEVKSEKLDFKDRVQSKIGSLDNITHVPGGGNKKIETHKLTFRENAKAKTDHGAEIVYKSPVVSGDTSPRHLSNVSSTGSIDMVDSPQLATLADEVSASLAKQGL
T2 sequence (P10636 1-352 isoform P10636-2): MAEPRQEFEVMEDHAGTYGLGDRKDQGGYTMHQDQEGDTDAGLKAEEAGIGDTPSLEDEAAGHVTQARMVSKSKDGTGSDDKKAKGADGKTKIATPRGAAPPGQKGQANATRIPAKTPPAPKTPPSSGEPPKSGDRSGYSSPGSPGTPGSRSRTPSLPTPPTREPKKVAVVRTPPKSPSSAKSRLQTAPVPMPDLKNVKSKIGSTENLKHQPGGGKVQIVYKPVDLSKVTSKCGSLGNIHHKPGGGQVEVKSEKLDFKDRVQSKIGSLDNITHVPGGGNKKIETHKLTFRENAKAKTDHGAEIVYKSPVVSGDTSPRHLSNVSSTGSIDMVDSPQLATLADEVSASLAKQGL
T4 sequence (P10636 1-383 isoform P10636-6): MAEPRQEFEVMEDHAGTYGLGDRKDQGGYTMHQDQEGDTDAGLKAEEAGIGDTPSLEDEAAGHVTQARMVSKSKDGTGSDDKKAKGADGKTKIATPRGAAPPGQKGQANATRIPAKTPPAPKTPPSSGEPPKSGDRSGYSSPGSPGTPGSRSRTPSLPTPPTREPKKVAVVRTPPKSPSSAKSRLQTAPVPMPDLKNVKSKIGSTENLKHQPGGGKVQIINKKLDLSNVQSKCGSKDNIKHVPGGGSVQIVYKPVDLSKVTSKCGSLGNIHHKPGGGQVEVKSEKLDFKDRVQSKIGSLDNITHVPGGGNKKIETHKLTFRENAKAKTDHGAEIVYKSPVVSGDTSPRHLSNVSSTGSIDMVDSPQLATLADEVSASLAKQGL
T5 sequence (P10636 with tags, fused parts or gaps isoform P10636-2 limits assumed): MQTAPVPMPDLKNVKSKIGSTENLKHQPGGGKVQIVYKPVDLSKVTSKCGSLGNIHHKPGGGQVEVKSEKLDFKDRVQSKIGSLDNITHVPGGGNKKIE
T1 sequence (P10636 with tags, fused parts or gaps isoform P10636-2 limits assumed): as above
T3 sequence (P10636 561-685 limits assumed): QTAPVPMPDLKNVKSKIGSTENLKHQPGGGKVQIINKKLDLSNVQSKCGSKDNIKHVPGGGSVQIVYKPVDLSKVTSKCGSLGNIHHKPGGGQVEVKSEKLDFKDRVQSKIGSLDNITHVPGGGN

| Structure (SMILES) | IC50 (K18/ΔK280; Inhibition of tau aggregation IC50, K18/ΔK280, ThS fluorescence) | IC50 (tau construct K19) | DC50 (PHFs from htau23; read-out: Depolymerisation of PHFs DC50, hTau23, ThS fluorescence) | IC50 [1] | DC50 (PHFs from htau24; read-out: Depolymerisation of PHFs DC50, hTau24; ThS fluorescence, pre-formed PHFs) | DC50 (PHFs from K19; read-out: Depolymerisation of PHFs DC50, K19, ThS fluorescence, overnight 37° C.) | IC50 (K18/ΔK280; [2]) | DC50 (PHFs from htau23; [3]) | IC50 [1, 4] | depolymerisation of htau24 filaments (PHFs from htau24) | DC50 (PHFs from htau24; [5]) | DC50 (PHFs from K19; [6]) | inhibition of filament formation, K18/ΔK280 (K18/ΔK280) |
| --- | --- | --- | --- | --- | --- | --- | --- | --- | --- | --- | --- | --- | --- |
| COc1cccc2c1C(=O)c1c(O)c3c(c(O)c1C2=O)CC(O)(C(=O)CO)CC3OC1CC(N)C(O)C(C)O1 (stereo not drawn) [Adriamycin, 10-(4-Amino-5-hydroxy-6-methyl-tetrahydro-pyran-2-yloxy)-6,8,11-trihydroxy-8-(2-hydroxyethanoyl)-1-methoxy-7,8,9,10-tetrahydro-naphthacene-5,12-dione, reference compound] | 3.9 µM | 17.6 µM | 13.2 µM | 0.1 µM | > 60 µM | 27 µM |  |  |  |  |  |  |  |
| Cc1cc(O)c2c(c1)C(=O)c1cc(O)cc(O)c1C2=O [Emodin, 1,3,8-Trihydroxy-6-methyl-anthraquinone] |  | 2.4 µM |  |  |  |  | 1.9 µM | 7 µM | 0.3 µM | only weak PHF breakers | > 60 µM | 2 µM |  |
| O=C1c2ccc(O)c(O)c2C(=O)c2c(O)ccc(O)c21 [PHF016, 1,2,5,8-Tetrahydroxy-anthraquinone] |  | 6.8 µM |  |  |  |  | 1.3 µM | > 60 µM | 0.6 µM |  | 39.2 µM | 7.8 µM |  |
| COc1cccc2c1C(=O)c1c(O)c3c(c(O)c1C2=O)CC(O)(C(C)=O)CC3OC1CC(N)C(O)C(C)O1 (stereo not drawn) [Daunorubicin, 8-Acetyl-10-(4-amino-5-hydroxy-6-methyl-tetrahydro-pyran-2-yloxy)-6,8,11-trihydroxy-1-methoxy-7,8,9,10-tetrahydro-naphthacene-5,12-dione, reference compound] |  | 1 µM |  |  |  |  | 48 µM and 48.1 µM | 8.2 µM | 0.3 µM | only weak PHF breakers | > 60 µM | 3.1 µM |  |
| O=C(c1ccccc1)c1ccc(O)c(O)c1O [PHF005, 1-Phenyl-1-(2,3,4-trihydroxy-phenyl)-methanone] |  | 6 µM |  |  |  |  | > 60 µM | > 60 µM | 2.7 µM |  | 10.8 µM | 9.4 µM | failed nearly completely |
